Experimental data as given in ChEMBL document CHEMBL1201862, “PubChem BioAssay data set” (2004).
The source made the active and inactive calls.

What was measured:
[1] = biological target: T1, Mannose-6-phosphate isomerase (Homo sapiens, UniProt P34949); experiment: human PMI inhibitors, high substrate, primary screen, biochemical, fluorescence intensity, high mannose 6-phosphate (AID 1220)
T1 sequence (P34949 whole entry): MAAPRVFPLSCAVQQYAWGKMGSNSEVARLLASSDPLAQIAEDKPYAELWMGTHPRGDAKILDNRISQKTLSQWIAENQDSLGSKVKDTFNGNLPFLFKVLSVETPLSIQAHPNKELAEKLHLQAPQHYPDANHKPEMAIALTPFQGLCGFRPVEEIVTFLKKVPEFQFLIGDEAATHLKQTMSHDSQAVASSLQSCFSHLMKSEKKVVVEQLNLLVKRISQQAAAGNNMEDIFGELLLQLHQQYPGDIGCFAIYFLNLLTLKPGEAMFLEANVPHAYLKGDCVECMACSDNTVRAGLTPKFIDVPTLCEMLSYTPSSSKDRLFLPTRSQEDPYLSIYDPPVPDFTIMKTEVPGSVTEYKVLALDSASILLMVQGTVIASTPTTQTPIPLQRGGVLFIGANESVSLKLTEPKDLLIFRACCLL

[2] = THP-1 cell cytotoxicity, dose response, cytotoxicity control for non-replicating M. tuberculosis project (AID 489025); assay type: functional
cells = assay type: functional
Kallikrein-7 = Kallikrein-7 (Homo sapiens, UniProt P49862); experiment: Fluorescence Intensity-based biochemical primary high throughput dose response assay to identify activators of kallikrein-7 (K7) zymogen.
Kallikrein-7, sequence (P49862 whole entry): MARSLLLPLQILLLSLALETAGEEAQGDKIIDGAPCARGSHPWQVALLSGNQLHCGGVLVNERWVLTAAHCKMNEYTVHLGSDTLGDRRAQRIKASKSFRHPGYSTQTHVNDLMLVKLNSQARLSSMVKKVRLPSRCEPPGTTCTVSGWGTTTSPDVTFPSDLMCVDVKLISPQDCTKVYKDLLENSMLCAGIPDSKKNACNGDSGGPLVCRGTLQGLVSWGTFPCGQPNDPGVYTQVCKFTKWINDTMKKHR

[3] = biological target: T2, Heat shock factor protein 1 (Mus musculus, UniProt P38532); experiment: inhibition of MG132-induced HSE-luciferase signal, confirmation, cell-based, NIH3T3, luminescence, dose retest (AID 2382); assay type: functional;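 further: NIH3T3 fibroblasts with HSF1-driven luciferase reporter stressed by proteasome inhibitor MG132; luminescence from HSF1-driven luciferase expression after 8 hours of MG132 stress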
T2 sequence (P38532 whole entry): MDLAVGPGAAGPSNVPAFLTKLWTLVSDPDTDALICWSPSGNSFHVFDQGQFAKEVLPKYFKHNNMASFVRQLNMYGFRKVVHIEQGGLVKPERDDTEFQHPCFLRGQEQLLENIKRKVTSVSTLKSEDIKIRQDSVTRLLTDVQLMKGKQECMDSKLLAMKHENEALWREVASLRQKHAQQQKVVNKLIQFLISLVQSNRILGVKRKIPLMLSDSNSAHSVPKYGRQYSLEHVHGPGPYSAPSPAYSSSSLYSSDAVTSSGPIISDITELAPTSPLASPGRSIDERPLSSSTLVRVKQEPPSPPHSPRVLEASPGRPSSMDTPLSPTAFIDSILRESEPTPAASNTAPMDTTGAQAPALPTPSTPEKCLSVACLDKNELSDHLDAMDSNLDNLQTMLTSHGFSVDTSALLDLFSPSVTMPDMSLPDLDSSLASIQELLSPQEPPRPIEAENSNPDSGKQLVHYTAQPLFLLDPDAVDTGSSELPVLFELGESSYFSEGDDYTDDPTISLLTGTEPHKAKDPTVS

INS1 = experiment: beta cell apoptosis inhibitors, cytokine rescue, dose response, luminescence, retest (AID 449756); assay type: functional, cell-based; conditions: Rattus norvegicus;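 further: cell death triggered by IL-1 beta plus TNF-alpha plus IFN-gamma mixture; protective hits raise ATP signal compared with cytokine alone wells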
[4] = biological target: Induced myeloid leukemia cell differentiation protein Mcl-1 (Homo sapiens, UniProt Q07820); assay type: functional
Induced myeloid leukemia cell differentiation protein Mcl-1, sequence (Q07820 whole entry): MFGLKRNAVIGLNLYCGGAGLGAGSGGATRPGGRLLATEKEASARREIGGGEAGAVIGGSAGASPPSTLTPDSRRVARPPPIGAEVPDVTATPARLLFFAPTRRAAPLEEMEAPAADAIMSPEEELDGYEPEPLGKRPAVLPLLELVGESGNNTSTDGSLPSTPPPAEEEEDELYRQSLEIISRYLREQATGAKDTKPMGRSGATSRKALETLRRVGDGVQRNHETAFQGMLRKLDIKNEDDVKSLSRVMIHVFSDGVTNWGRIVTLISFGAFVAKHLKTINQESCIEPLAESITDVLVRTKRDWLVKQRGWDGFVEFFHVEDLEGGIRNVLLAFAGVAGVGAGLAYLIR

BJ [5] = experiment: cytotoxicity toward BJ-TERT fibroblasts, dose response, cell-based, RAS-independent, luminescence (AID 1933); assay type: functional; conditions: Homo sapiens
BJ [6] = experiment: cells; assay type: functional, cell-based; conditions: Homo sapiens
BJ [7] = experiment: cytotoxicity toward BJ-TERT-LT-ST fibroblasts, dose response, cell-based, RAS-independent, luminescence (AID 1935); assay type: functional; conditions: Homo sapiens;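 further: BJ fibroblasts immortalized with TERT plus LT and ST oncogenes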
[8] = cytotoxicity toward DRD oncogenic fibroblasts, dose response, cell-based, non-viral oncogenic, luminescence (AID 1934); assay type: functional; conditions: Homo sapiens
Genome polyprotein = Genome polyprotein (dengue virus type 2, UniProt P29990); experiment: Dengue-2 NS5 methyltransferase inhibitors, primary screen, biochemical, confirmation dose response (AID 588689); assay type: functional
Genome polyprotein, sequence (P29990 2492-3391 limits assumed): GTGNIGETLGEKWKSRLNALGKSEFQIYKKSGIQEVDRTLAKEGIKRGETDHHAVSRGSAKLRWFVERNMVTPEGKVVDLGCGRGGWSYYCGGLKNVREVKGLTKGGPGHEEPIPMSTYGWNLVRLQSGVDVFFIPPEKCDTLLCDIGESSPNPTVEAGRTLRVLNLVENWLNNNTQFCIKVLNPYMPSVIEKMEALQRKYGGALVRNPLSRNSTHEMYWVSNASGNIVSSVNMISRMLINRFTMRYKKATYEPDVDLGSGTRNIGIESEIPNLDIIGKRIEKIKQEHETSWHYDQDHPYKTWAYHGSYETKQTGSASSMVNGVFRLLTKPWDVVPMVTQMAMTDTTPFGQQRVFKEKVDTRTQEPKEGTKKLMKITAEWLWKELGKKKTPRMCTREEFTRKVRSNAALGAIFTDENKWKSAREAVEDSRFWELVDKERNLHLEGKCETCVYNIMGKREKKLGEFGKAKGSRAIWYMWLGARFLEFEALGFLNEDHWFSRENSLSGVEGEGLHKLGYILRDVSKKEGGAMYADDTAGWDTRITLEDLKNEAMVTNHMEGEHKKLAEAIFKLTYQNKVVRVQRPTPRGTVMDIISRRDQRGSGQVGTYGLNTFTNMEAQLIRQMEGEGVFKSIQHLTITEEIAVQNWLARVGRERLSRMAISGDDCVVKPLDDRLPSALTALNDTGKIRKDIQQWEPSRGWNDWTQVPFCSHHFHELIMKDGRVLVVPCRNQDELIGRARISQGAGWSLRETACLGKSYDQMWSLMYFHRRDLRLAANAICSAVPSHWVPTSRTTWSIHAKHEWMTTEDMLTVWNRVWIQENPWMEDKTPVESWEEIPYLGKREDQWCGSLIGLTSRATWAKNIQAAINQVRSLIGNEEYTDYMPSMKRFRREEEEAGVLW

Caspase-3 = biological target: T3, Caspase-3 (Homo sapiens, UniProt P42574); assay type: functional;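 further: Dose-response selectivity test against caspase-3 for candidate inhibitors of sentrin-specific proteases (SENPs)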
T3 sequence (P42574 whole entry): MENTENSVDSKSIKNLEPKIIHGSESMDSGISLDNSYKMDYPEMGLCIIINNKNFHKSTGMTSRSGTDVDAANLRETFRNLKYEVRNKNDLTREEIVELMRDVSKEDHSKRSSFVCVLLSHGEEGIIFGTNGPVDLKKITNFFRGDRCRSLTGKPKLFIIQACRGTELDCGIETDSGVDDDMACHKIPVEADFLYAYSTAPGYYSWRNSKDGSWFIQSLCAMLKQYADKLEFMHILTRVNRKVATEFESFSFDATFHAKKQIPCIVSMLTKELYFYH

[9] = biological target: T4, Sentrin-specific protease 7 (Homo sapiens, UniProt Q9BQF6); assay type: functional;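 further: Luminescence-based dose-response confirmation of ultra-high-throughput screening hits, measuring inhibition of SENP7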
T4 sequence (Q9BQF6 whole entry): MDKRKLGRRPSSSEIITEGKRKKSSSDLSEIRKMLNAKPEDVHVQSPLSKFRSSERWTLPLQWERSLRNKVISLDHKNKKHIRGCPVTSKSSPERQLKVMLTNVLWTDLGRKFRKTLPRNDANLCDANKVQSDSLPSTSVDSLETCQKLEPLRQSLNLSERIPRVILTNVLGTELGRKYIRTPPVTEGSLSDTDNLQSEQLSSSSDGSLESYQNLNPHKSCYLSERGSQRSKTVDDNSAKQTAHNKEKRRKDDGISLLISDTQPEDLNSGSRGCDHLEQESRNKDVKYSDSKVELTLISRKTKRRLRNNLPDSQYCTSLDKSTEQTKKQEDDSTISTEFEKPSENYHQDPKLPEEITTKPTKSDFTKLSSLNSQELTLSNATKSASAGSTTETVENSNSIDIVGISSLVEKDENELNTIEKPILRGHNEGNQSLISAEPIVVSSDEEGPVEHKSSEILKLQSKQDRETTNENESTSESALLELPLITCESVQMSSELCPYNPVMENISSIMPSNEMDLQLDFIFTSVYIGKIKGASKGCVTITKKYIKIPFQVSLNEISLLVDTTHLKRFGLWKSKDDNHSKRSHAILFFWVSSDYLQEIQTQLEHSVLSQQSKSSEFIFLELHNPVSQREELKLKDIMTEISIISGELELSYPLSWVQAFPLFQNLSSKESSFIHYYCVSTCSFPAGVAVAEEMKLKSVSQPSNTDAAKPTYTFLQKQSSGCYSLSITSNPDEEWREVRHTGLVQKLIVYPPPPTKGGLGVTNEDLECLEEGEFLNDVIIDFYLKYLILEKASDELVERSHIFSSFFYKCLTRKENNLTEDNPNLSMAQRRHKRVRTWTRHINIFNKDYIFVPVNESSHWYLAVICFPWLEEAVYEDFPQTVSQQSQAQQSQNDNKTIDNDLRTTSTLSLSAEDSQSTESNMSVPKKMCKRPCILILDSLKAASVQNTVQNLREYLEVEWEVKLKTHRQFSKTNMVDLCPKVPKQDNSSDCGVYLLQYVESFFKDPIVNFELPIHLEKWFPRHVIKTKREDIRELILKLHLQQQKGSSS

[10] = biological target: T5, Sentrin-specific protease 6 (Homo sapiens, UniProt Q9GZR1); assay type: functional;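 further: Luminescence-based dose-response confirmatory assay of SENP6 inhibition, following up an ultra-high-throughput screen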
T5 sequence (Q9GZR1 whole entry): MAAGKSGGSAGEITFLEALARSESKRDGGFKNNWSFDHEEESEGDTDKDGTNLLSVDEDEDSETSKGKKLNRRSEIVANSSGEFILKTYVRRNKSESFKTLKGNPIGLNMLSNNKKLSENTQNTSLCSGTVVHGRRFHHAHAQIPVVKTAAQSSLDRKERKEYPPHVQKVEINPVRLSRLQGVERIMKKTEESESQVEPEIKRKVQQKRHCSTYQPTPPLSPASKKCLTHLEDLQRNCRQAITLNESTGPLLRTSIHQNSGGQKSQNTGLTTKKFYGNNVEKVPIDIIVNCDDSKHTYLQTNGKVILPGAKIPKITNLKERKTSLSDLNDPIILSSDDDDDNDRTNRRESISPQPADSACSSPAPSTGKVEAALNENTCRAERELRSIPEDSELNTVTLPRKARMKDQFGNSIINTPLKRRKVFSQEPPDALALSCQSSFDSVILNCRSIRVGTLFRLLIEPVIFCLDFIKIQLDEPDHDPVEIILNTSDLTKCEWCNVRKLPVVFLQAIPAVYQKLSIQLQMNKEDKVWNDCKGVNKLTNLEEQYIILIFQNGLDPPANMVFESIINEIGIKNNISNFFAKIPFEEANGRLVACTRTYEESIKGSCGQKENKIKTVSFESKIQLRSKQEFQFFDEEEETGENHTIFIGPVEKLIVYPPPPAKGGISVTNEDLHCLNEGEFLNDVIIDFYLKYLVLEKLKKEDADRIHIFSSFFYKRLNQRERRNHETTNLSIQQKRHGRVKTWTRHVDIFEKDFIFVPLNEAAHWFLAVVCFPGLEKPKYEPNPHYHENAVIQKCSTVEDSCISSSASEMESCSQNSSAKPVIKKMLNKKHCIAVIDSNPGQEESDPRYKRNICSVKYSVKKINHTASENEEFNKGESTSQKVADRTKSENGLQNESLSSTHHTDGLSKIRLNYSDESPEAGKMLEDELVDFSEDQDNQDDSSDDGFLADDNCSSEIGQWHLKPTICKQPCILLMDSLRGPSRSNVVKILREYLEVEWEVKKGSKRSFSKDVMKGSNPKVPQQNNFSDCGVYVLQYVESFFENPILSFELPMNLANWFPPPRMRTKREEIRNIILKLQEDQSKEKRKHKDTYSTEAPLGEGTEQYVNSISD

[11] = biological target: T6, Sentrin-specific protease 8 (Homo sapiens, UniProt Q96LD8); assay type: functional;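 further: luminescence read-out of SENP8 inhibition, dose-response confirmation following an ultra-high-throughput screen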
T6 sequence (Q96LD8 whole entry): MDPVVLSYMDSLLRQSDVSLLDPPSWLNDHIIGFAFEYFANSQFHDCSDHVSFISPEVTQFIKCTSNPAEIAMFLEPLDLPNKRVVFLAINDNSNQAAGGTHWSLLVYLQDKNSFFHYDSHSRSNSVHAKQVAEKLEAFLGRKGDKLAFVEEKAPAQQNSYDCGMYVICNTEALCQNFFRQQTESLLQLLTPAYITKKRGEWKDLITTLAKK

[12] = HepG2 cell cytotoxicity, dose response, cytotoxicity control, plate reader, cherry-pick, antagonist series (AID 743416); assay type: functional, cell-based
[13] = LGR2 antagonists, dose response, cell-based, HEK293, CRE-luciferase reporter, cherry pick, set 2 (AID 743343); assay type: functional;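 further: transfected cells were stimulated with diluted bursicon conditioned medium after compound addition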
[14] = MC4R antagonists, dose response, counter-screen for LGR2 antagonist project, cell-based, plate reader, cherry pick (AID 743444); assay type: functional;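 further: transfected HEK 293 cells stimulated with alpha-MSH peptide; potency of inhibitors of the alpha-MSH evoked signal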
[15] = A549 cell cytotoxicity, dose response, cytotoxicity control, plate reader, cherry-pick, antagonist series (AID 743412); assay type: functional, cell-based
[16] = biological target: Luciferin 4-monooxygenase (Photinus pyralis, UniProt P08659); experiment: firefly luciferase enzyme inhibitors, dose response, biochemical, luminescence (AID 1891)
Luciferin 4-monooxygenase, sequence (P08659 whole entry): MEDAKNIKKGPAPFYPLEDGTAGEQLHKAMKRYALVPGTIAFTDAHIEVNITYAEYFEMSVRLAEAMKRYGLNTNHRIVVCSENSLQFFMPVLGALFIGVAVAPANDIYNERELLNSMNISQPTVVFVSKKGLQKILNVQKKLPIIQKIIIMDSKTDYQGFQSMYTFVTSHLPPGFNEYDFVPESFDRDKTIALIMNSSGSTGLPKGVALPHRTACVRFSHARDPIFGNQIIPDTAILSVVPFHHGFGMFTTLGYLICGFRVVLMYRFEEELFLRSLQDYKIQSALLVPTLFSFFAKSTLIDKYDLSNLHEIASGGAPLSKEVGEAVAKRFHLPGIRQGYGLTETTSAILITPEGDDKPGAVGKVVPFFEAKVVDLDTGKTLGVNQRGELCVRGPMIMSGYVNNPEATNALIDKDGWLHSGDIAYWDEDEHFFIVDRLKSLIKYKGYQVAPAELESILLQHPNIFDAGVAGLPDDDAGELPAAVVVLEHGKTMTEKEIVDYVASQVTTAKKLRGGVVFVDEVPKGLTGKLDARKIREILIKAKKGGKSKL

[17] = Luminescence Cell-Based Dose Confirmation HTS to Identify Inhibitors of Platelet Dense Granule Release. [Related pubchem assays: 1663 (Primary HTS), 1678 (Summary of Project)]; assay type: functional
[18] = inhibitors of intracellular T. cruzi replication, confirmation, NIH3T3 host cells, beta-gal luminescence (AID 2044); assay type: functional, cell-based;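 further: intracellular parasites grown in NIH/3T3 mouse fibroblasts as host cells; luminescent beta-galactosidase reporter signal from transgenic T. cruzi replicating inside host cells; inhibitors lower the luminescence signal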
[19] = cytotoxicity toward NIH3T3 fibroblasts, dose response, counter-screen, cell-based, ATP luminescence, mouse fibroblasts (AID 2010); assay type: functional;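 further: cells exposed to compound for about 90 hours before reading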

CCc1cc(N2CCOCC2)cc2c1[nH]c1ccccc12
IC50 [1]: > 50 µM (not active)

COC(=O)COc1cccc(NC(=O)COc2ccccc2)c1
CC50 [2]: > 40 µM (active) | IC50 (cells): 1.65 µM (active)

O=C(Nc1ccc2c(c1)C(=O)NC2=O)c1ccc(S(=O)(=O)N2CCCC2)cc1
EC50 (Kallikrein-7): 8.55 µM (active)

O=C(c1ccc([N+](=O)[O-])s1)N1CCN(c2cccc(Cl)c2)CC1
EC50 [3]: > 195 µM (not active) | CC50 [2]: 35.6 µM (active) | IC50 (cells): 1.11 µM (active) | AC50 (INS1): 7.83 µM (active)

COCCN(CCOC)c1cc(C)c(C#N)c2nc3ccccc3n12
EC50 (Kallikrein-7): 11.2 µM (inactive)

CCc1cccc(OCCCn2ccnc2)c1
CC50 [2]: > 40 µM (active)

Cc1cccc(-n2c(SCC(=O)N3CCCC3)nc3nnc(C)c-3c2N)c1
EC50 (Kallikrein-7): 13.3 µM (inactive)

O=C(NC1CCCCCC1)c1cc2c(=O)n3ccccc3nc2s1
EC50 (Kallikrein-7): > 69.5 µM (inactive)

O=C(Nc1ccc2nc3ccccc3nc2c1)c1ccccc1
IC50 [4]: > 54 µM (active) | EC50 (Kallikrein-7): > 69.5 µM (inactive)

CN1C(=O)NC(=O)/C(=C/c2ccc([N+](=O)[O-])s2)C1=O
EC50 (BJ [5]): 11.2 µM (active) | EC50 (BJ [6]): > 150 µM (not active) | EC50 (BJ [7]): > 150 µM (not active) | EC50 [8]: > 150 µM (not active) | CC50 [2]: 33.8 µM (active) | IC50 (cells): 23.2 µM (active) | IC50 (Genome polyprotein): 17.4 µM (active)

COCCn1c(C)cc(C(=O)CSc2nc3ccccc3s2)c1C
IC50 (Caspase-3): 26.4 µM (active) | IC50 [9]: 8.92 µM (active) | IC50 [10]: 27.4 µM (active) | IC50 [11]: 83.7 µM (active) | AC50 [12]: 41.8 µM (active) | AC50 [13]: 3.81 µM (active) | AC50 [14]: 6.46 µM (active)

COC(=O)C1=CNC=C(C(=O)OC)C1c1ccc(C(=O)OC)cc1
EC50 (Kallikrein-7): > 69.5 µM (inactive)

CC(=O)c1ccc(Nc2nc(-c3sc(C)nc3C)cs2)cc1
AC50 [15]: 2.08 µM (active) | AC50 [12]: 2.87 µM (active) | AC50 [13]: 21.8 µM (active) | AC50 [14]: 34 µM (active)

CCCCN1C(=O)/C(=N\c2cccc3cnccc23)c2ccccc21
EC50 [16]: > 112 µM (not active) | EC50 [17]: > 112 µM (not active) | IC50 [1]: > 50 µM (not active)

CCC/C(=N\NC(=O)c1ccco1)c1ccc(Cl)s1
CC50 [2]: > 40 µM (active) | IC50 (cells): 13.9 µM (active)

O=C(O)c1ccc(/C=N/NC(=O)c2cc(-c3cccs3)nc3ccccc23)cc1
EC50 (Kallikrein-7): 49.6 µM (inactive)

CC(C)(C)C1=CC(=O)C(=O)C(C(C)(C)C)=C1
EC50 [18]: 0.62 µM (active) | EC50 [19]: 7.34 µM (active) | IC50 [1]: 9.84 µM (active)

O=C(Nc1nc2ccccc2[nH]1)c1ccc(Cl)cc1
AC50 [15]: 29.1 µM (active) | AC50 [12]: 29.5 µM (active) | AC50 [13]: 10.1 µM (active) | AC50 [14]: 6.33 µM (active)
